Key:
Assay type in all cases: biochemical
[1] = biological target: T1, recombinant human VAP-1 (Homo sapiens, UniProt Q16853); assay: Activity on recombinant human VAP-1, HRP-coupled Amplex Red hydrogen peroxide assay; settings: substrate 1 mM benzylamine; compound incubated with enzyme at 37° C. for 30 minutes; pH 7.4; read-out: Inhibitory Activity (IC50, nM) human VAP-1
T1 construct: purchased R&D systems
T1 sequence (Q16853 1-763): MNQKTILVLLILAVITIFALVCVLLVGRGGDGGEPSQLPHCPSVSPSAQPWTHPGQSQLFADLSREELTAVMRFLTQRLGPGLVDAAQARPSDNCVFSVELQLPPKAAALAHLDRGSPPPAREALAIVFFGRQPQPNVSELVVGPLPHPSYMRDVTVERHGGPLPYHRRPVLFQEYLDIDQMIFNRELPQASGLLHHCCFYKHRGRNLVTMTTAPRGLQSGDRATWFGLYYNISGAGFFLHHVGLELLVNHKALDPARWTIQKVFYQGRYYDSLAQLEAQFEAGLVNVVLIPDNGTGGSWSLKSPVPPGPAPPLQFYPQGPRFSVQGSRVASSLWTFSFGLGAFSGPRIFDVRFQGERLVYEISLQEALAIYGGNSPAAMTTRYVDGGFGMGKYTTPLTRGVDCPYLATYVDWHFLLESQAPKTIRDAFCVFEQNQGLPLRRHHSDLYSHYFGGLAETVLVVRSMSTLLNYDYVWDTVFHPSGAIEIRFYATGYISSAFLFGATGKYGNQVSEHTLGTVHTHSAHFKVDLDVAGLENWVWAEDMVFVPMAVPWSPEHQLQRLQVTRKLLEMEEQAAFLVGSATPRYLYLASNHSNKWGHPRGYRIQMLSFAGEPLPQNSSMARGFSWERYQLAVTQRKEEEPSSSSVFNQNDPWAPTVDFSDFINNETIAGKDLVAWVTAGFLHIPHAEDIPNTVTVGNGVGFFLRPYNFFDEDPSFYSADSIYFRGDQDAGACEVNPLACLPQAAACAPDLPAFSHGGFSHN
In short: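 H2O2 generation from 1 mM benzylamine was coupled via 1 U/mL HRP to 200 uM Amplex Red; inhibitors, serially diluted 1:3 over 8 points with under 1% final DMSO, had been preincubated 30 min at 37 °C. IC50 from percentage drop in rate.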

[2] = biological target: T2, recombinant human MAO-B (monoamine oxidase-B) (Homo sapiens, UniProt P27338); assay: Activity on recombinant human MAO-B, method similar to the VAP-1 assay; settings: substrate 1 mM benzylamine; read-out: Inhibitory Activity (IC50, nM) MAO-B
T2 construct: purchased Sigma-Aldrich
T2 sequence (P27338 1-520): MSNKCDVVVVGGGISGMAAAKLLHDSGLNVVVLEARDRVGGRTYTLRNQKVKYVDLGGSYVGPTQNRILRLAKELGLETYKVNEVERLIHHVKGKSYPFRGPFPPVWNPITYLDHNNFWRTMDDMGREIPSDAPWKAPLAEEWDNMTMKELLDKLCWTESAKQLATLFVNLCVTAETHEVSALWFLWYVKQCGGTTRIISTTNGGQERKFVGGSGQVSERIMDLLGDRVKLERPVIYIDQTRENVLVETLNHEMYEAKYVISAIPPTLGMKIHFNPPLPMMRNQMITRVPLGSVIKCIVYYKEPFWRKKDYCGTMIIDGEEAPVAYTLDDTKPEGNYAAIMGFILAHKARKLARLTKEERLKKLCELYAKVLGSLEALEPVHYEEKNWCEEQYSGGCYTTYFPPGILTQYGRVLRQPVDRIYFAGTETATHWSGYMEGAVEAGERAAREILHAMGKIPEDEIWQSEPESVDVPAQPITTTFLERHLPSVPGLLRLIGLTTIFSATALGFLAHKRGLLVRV
In short: (§1)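 First, serially diluted compounds were incubated with recombinant enzyme in 50 mM sodium phosphate, pH 7.4, for 30 min at 37° C. Next, Amplex Red (200 uM), HRP (1 U/mL) and tyramine (0.5 mM, MAO-A) or benzylamine (1 mM, MAO-B) were added. Then fluorescence was monitored over 1-2 h and IC50 fitted.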

[3] = biological target: T3, recombinant human MAO-A (monoamine oxidase-A) (Homo sapiens, UniProt P21397); assay: Activity on recombinant human MAO-A, method similar to the VAP-1 assay; settings: substrate 0.5 mM tyramine; read-out: Inhibitory Activity (IC50, nM) MAO-A
T3 construct: purchased Sigma-Aldrich
T3 sequence (P21397 1-527): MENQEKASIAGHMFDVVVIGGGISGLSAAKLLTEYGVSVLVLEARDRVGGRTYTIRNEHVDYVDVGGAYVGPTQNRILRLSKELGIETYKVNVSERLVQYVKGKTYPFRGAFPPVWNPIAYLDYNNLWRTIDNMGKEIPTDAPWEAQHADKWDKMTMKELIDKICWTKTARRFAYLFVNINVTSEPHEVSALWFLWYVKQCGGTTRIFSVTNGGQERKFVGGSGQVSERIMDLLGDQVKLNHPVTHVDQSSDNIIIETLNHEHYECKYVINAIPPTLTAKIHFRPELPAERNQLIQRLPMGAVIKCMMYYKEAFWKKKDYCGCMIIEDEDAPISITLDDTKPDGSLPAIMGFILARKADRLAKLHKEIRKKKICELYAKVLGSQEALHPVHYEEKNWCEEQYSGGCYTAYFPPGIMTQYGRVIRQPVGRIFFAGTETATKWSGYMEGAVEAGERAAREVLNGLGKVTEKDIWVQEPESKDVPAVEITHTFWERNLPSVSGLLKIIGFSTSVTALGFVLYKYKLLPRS
In short: as §1

[4] = biological target: T4, recombinant human DAO (diamine oxidase) (Homo sapiens, UniProt P19801); assay: Activity on recombinant human DAO, method similar to the VAP-1 assay; settings: substrate 1 mM putrescine; read-out: Inhibitory Activity (IC50, nM) DAO
T4 construct: purchased R&D systems
T4 sequence (P19801 20-751): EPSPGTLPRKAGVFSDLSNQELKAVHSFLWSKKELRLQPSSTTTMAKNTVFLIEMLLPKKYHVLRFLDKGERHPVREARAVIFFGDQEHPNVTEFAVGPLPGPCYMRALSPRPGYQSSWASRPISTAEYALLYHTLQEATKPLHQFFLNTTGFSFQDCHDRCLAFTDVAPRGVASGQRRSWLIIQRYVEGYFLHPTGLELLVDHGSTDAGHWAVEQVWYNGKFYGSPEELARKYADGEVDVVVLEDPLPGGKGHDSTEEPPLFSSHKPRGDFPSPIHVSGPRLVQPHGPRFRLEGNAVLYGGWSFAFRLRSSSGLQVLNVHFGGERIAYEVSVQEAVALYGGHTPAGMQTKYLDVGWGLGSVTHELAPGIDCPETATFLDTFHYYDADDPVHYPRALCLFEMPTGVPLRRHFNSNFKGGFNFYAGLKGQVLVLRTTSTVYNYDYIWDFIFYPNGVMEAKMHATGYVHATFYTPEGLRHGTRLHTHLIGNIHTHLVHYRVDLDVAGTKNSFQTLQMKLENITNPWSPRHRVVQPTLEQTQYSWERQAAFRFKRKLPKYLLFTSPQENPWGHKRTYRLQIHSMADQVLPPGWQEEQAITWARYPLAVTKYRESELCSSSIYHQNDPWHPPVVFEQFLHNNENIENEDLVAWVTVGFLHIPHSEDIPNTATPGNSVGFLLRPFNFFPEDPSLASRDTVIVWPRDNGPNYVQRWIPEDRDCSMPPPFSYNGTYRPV
In short: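 Inhibition of recombinant human diamine oxidase (DAO, R&D systems) was assessed by the same approach as the VAP-1 assay, using 1 mM putrescine as substrate. Hydrogen peroxide formed was detected through an HRP-coupled Amplex Red reaction yielding fluorescent resorufin, read at 544 nm excitation and 590 nm emission. IC50 values came from four-parameter logistic fitting in GraphPad Prism.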

| IC50 [1] | IC50 [2] | IC50 [3] | IC50 [4] | SMILES |
| --- | --- | --- | --- | --- |
| 2.3 nM | 4900 nM | 37000 nM | 77000 nM | CN(C)c1ccc(-c2ccc3sc(Cn4cnn(C/C(=C/F)CN)c4=O)cc3c2)cn1 [Example 212, 2-[(2E)-2-(aminomethyl)-3-fluoroprop-2-en-1-yl]-4-({5-[6-(dimethylamino)pyridin-3-yl]-1-benzothiophen-2-yl}methyl)-2,4-dihydro-3H-1,2,4-triazol-3-one] |
| 3 nM | 5200 nM | > 100000 nM | 1500 nM | NC/C(=C\F)Cn1ncn(Cc2cc3cc(-c4ccc(N5CCNCC5)cc4)ccc3s2)c1=O [Example 213, 2-[(2E)-2-(aminomethyl)-3-fluoroprop-2-en-1-yl]-4-({5-[4-(piperazin-1-yl)phenyl]-1-benzothiophen-2-yl}methyl)-2,4-dihydro-3H-1,2,4-triazol-3-one] |
| 1.6 nM | 2200 nM | > 100000 nM | 1400 nM | CCn1cc(-c2ccc3sc(Cn4cnn(C/C(=C/F)CN)c4=O)cc3c2)cn1 [Example 214, 2-[(2E)-2-(aminomethyl)-3-fluoroprop-2-en-1-yl]-4-{[5-(1-ethyl-1H-pyrazol-4-yl)-1-benzothiophen-2-yl]methyl}-2,4-dihydro-3H-1,2,4-triazol-3-one] |
| 1.3 nM | 310 nM | > 100000 nM | 380 nM | NC/C(=C\F)Cn1ncn(CCc2ccc(-c3ccc4c(c3)OCO4)s2)c1=O [Example 215, 2-[(2E)-2-(aminomethyl)-3-fluoroprop-2-en-1-yl]-4-{2-[5-(1,3-benzodioxol-5-yl)thiophen-2-yl]ethyl}-2,4-dihydro-3H-1,2,4-triazol-3-one] |
| 0.5 nM | 37000 nM | > 100000 nM | 68 nM | CS(=O)(=O)c1ccc(-c2ccc(CCn3cnn(C/C(=C/F)CN)c3=O)s2)cc1 [Example 216, 2-[(2E)-2-(aminomethyl)-3-fluoroprop-2-en-1-yl]-4-(2-{5-[4-(methylsulfonyl)phenyl]thiophen-2-yl}ethyl)-2,4-dihydro-3H-1,2,4-triazol-3-one] |
| 0.7 nM | 6900 nM | > 100000 nM | 61 nM | NC/C(=C\F)Cn1ncn(CCc2ccc(-c3ccc(C(F)(F)F)nc3)s2)c1=O [Example 217, 2-[(2E)-2-(aminomethyl)-3-fluoroprop-2-en-1-yl]-4-(2-{5-[6-(trifluoromethyl)pyridin-3-yl]thiophen-2-yl}ethyl)-2,4-dihydro-3H-1,2,4-triazol-3-one] |
| 0.7 nM | 76000 nM | > 100000 nM | 200 nM | Cc1cc(-c2ccc(CCn3cnn(C/C(=C/F)CN)c3=O)s2)cc2c1NC(=O)CC2 [Example 218, 6-[5-(2-{1-[(2E)-2-(aminomethyl)-3-fluoroprop-2-en-1-yl]-5-oxo-1,5-dihydro-4H-1,2,4-triazol-4-yl}ethyl)thiophen-2-yl]-8-methyl-3,4-dihydroquinolin-2(1H)-one] |
| 0.5 nM | 38000 nM | > 100000 nM | 120 nM | CN1C(=O)CCc2cc(-c3ccc(CCn4cnn(C/C(=C/F)CN)c4=O)s3)ccc21 [Example 219, 6-[5-(2-{1-[(2E)-2-(aminomethyl)-3-fluoroprop-2-en-1-yl]-5-oxo-1,5-dihydro-4H-1,2,4-triazol-4-yl}ethyl)thiophen-2-yl]-1-methyl-3,4-dihydroquinolin-2(1H)-one] |
| 0.7 nM | 25000 nM | > 100000 nM | 520 nM | CN(C)c1ccc(-c2ccc(CCn3cnn(C/C(=C/F)CN)c3=O)s2)cn1 [Example 220, 2-[(2E)-2-(aminomethyl)-3-fluoroprop-2-en-1-yl]-4-(2-{5-[6-(dimethylamino)pyridin-3-yl]thiophen-2-yl}ethyl)-2,4-dihydro-3H-1,2,4-triazol-3-one] |
| 1.8 nM | > 100000 nM | > 100000 nM | 1420 nM | NC/C(=C\F)Cn1ncn(CCc2ccc(-c3ccc(N4CCNCC4)cc3)s2)c1=O [Example 221, 2-[(2E)-2-(aminomethyl)-3-fluoroprop-2-en-1-yl]-4-(2-{5-[4-(piperazin-1-yl)phenyl]thiophen-2-yl}ethyl)-2,4-dihydro-3H-1,2,4-triazol-3-one] |
| 0.7 nM | 38000 nM | > 100000 nM | 890 nM | CCn1cc(-c2ccc(CCn3cnn(C/C(=C/F)CN)c3=O)s2)cn1 [Example 222, 2-[(2E)-2-(aminomethyl)-3-fluoroprop-2-en-1-yl]-4-{2-[5-(1-ethyl-1H-pyrazol-4-yl)thiophen-2-yl]ethyl}-2,4-dihydro-3H-1,2,4-triazol-3-one] |

— patent US11780830B2, “Triazolone derivatives or salts thereof and pharmaceutical compositions comprising the same” (YUHAN CORPORATION, priority 2018, dated 2023)
